Data taken from patent publication US8487103B2 (Roche Palo Alto LLC, priority 2009, dated 2013).

How the values were obtained:
[1] = biological target: T1, HCV polymerase (NS5B570n-Con1) (Hepatitis C virus genotype 1b, UniProt Q9WMX2); test: HCV NS5B RNA Polymerase Activity; type: biochemical, HCV Con1 strain
T1 construct: contains a 21 amino acid deletion at the C-terminus relative to the full-length HCV polymerase; 6-histidine (N); made in house; host or cells: E. coli BL21(DE) pLysS, plasmid pET 17b
Protocol: The enzymatic activity of HCV polymerase (NS5B570n-Con1) was measured as the incorporation of radiolabeled nucleotide monophosphates into acid insoluble RNA products. Unincorporated radiolabeled substrate was removed by filtration and scintillant was added to the washed and dried filter plate containing radiolabeled RNA product. The amount of RNA product generated by NS5B570-Con1 at the end of the reaction was directly proportional to the amount of light emitted by the scintillant.
The N-terminal 6-histidine tagged HCV polymerase, derived from HCV Con1 strain, genotype 1b (NS5B570n-Con1) contains a 21 amino acid deletion at the C-terminus relative to the full-length HCV polymerase and was purified from E. coli strain BL21(DE) pLysS. The construct, containing the coding sequence of HCV NS5B Con1 (GenBank accession number AJ242654) was inserted into the plasmid construct pET 17b, downstream of a T7 promoter expression cassette and transformed into E. coli. A single colony was grown overnight as a starter culture and later used inoculate 10 L of LB media supplemented with 100 μg/mL ampicillin at 37° C. Protein expression was induced by the addition of 0.25 mM isopropyl-β-D-thiogalactopyranoside (IPTG) when optical density at […] of the culture was between 0.6 and 0.8 and cells were harvested after 16 to 18 h at 30° C. NS5B570n-Con1 was purified to homogeneity using a three-step protocol including subsequent column chromatography on Ni-NTA, SP-Sepharose HP and Superdex 75 resins.
Each 50 μL enzymatic reaction contained 20 nM RNA template derived from the complementary sequence of the Internal Ribosome Entry Site (cIRES), 20 nM NS5B570n-Con1 enzyme, 0.5 μCi of tritiated UTP (Perkin Elmer catalog no. TRK-412; specific activity: 30 to 60 Ci/mmol; stock solution concentration from 7.5×10^−5 M to 20.6×10^−6 M), 1 μM each ATP, CTP, and GTP, 40 mM Tris-HCl pH 8.0, 40 mM NaCl, 4 mM DTT (dithiothreitol), 4 mM MgCl2, and 5 μl of compound serial diluted in DMSO. Reaction mixtures were assembled in 96-well filter plates (cat #MADVN0B, Millipore Co.) and incubated for 2 h at 30° C. Reactions were stopped by addition of 10% final (v/v) trichloroacetic acid and incubated for 40 min at 4° C. Reactions were filtered, washed with 8 reaction volumes of 10% (v/v) trichloroacetic acetic acid, 4 reaction volumes of 70% (v/v) ethanol, air dried, and 25 μl of scintillant (Microscint 20, Perkin-Elmer) was added to each reaction well.
The amount of light emitted from the scintillant was converted to counts per minute (CPM) on a Topcount® plate reader (Perkin-Elmer, Energy Range: Low, Efficiency Mode Normal, Count Time: 1 min, Background Subtract: none, Cross talk reduction: Off).
Data was analyzed in Excel® (Microsoft) and ActivityBase® (Idbs®). The reaction in the absence of enzyme was used to determine the background signal, which was subtracted from the enzymatic reactions. Positive control reactions were performed in the absence of compound, from which the background corrected activity was set as 100% polymerase activity. All data was expressed as a percentage of the positive control. The compound concentration at which the enzyme-catalyzed rate of RNA synthesis was reduced by 50% (IC50) was calculated by fitting equation (i) to the data where“Y”
[formula] corresponds to the relative enzyme activity (in %), “% Min” is the residual relative activity at saturating compound concentration, “% Max” is the relative maximum enzymatic activity, “X” corresponds to the compound concentration, and “S” is the Hill coefficient (or slope).

[2] = system: HCV replicon cells (2209-23), genotype 1b replicon; test: HCV Replicon Assay (Renilla luciferase reporter); type: cell-based, HCV genotype 1b; settings: Hepatitis C virus, 72 h; cell line 2209-23, luciferase activity after three days
in vitro = settings: human
HCV = settings: cited from earlier work

Compound	IC50 [1]	melting point	IC50 [2]	further results
CC(C)(C)c1cc(-c2cc(F)c[nH]c2=O)c2ncc(-c3ccc(NS(C)(=O)=O)cc3)nc2c1 [Compound I-2, N-{4-[7-tert-Butyl-5-(5-fluoro-2-oxo-1,2-dihydro-pyridin-3-yl)-quinoxalin-2-yl]-phenyl}-methanesulfonamide]	31 nM	> 300 °C	–	–
CC(C)(C)c1cc(-c2ccc[nH]c2=O)c2ncc(-c3ccc(NS(C)(=O)=O)cc3Cl)nc2c1 [Compound I-7]	3 nM	275 to 278 °C	–	–
COc1c(C(C)(C)C)cc(-c2ccc[nH]c2=O)c2ncc(N3CC(CNS(C)(=O)=O)C3)cc12 [Compound I-19, N-{1-[6-tert-Butyl-5-methoxy-8-(2-oxo-1,2-dihydro-pyridin-3-yl)-quinolin-3-yl]-azetidin-3-ylmethyl}-methanesulfonamide]	3 nM	177 to 180 °C	–	–
COc1c(C(C)(C)C)cc(-c2ccc(CO)[nH]c2=O)c2ncc(-c3ccc(NS(C)(=O)=O)cc3)cc12 [Compound I-41, N-{4-[6-tert-Butyl-8-(6-hydroxymethyl-2-oxo-1,2-dihydro-pyridin-3-yl)-5-methoxy-quinolin-3-yl]-phenyl}-methanesulfonamide]	0.2 nM	293 to 295 °C	–	–
CC(C)(C)c1cc(-c2cc(F)c[nH]c2=O)c2ncc(N3CC[C@H](CNS(C)(=O)=O)C3)nc2c1 [Compound I-4, N-{(S)-1-[7-tert-Butyl-5-(5-fluoro-2-oxo-1,2-dihydro-pyridin-3-yl)-quinoxalin-2-yl]-pyrrolidin-3-ylmethyl}-methanesulfonamide]	191 nM	170 to 175 °C	–	–
COc1c(C(C)(C)C)cc(-c2ccc[nH]c2=O)c2ncc(N3CC[C@H](CNS(C)(=O)=O)C3)cc12 [Compound I-18, N-{(S)-1-[6-tert-Butyl-5-methoxy-8-(2-oxo-1,2-dihydro-pyridin-3-yl)-quinolin-3-yl]-pyrrolidin-3-ylmethyl}-methanesulfonamide]	0.2 nM	275 to 280 °C	5.2 nM	CC50 at 3 days (in vitro): 30300 nM
Cc1ccc(-c2nc(C(C)(C)C)cc3cc(-c4ccc(NS(C)(=O)=O)cc4)ccc23)c(=O)[nH]1 [Compound I-48, N-{4-[3-tert-Butyl-1-(6-methyl-2-oxo-1,2-dihydro-pyridin-3-yl)-isoquinolin-6-yl]-phenyl}-methanesulfonamide]	–	–	27.4 nM	–
COc1c(C(C)(C)C)cc(-n2ccc(=O)[nH]c2=O)c2ncc(-c3ccc(NS(C)(=O)=O)cc3)cc12 [Compound I-21, N-{4-[6-tert-Butyl-8-(2,4-dioxo-3,4-dihydro-2H-pyrimidin-1-yl)-5-methoxy-quinolin-3-yl]-phenyl}-methanesulfonamide]	2.2 nM	277 to 281 °C	0.3 nM	–
CC(C)(C)c1cc(-c2cc(F)c[nH]c2=O)c2ncc(N3CCC(NS(C)(=O)=O)CC3)cc2c1 [Compound I-13, N-{1-[6-tert-Butyl-8-(5-fluoro-2-oxo-1,2-dihydro-pyridin-3-yl)-quinolin-3-yl]-piperidin-4-yl}-methanesulfonamide]	64 nM	186 to 188 °C	–	–
NC(=O)c1ncn([C@@H]2O[C@H](CO)[C@@H](O)[C@H]2O)n1 [ribavirin, 1-((2R,3R,4S,5R)-3,4-Dihydroxy-5-hydroxymethyl-tetrahydro-furan-2-yl)-1H-[1,2,4]triazole-3-carboxylic acid amide]	–	–	–	serum amino transferase levels reduced to normal, share of patients (HCV; monotherapy): 40%; effect on serum HCV-RNA (HCV; sole treatment / monotherapy): does not lower serum levels of HCV-RNA
COc1ccc(-c2cc(C(C)(C)C)cc3cc(N4CC[C@H](CNS(C)(=O)=O)C4)cnc23)c(=O)[nH]1 [Compound I-60, N-{(S)-1-[6-tert-Butyl-8-(6-methoxy-2-oxo-1,2-dihydro-pyridin-3-yl)-quinolin-3-yl]-pyrrolidin-3-ylmethyl}-methanesulfonamide]	–	–	81.8 nM	–
CC(C)(C)c1cc(-c2ccc[nH]c2=O)c2ncc(-c3ccc(NS(C)(=O)=O)cc3)nc2c1 [Compound I-6, N-{4-[7-tert-Butyl-5-(2-oxo-1,2-dihydro-pyridin-3-yl)-quinoxalin-2-yl]-phenyl}-methanesulfonamide]	1 nM	260 to 263 °C	–	–
